Reference: patent US20220257552A1, “METHODS OF PRESCREENING AND TREATING BREAST CANCERS WITH SELECTIVE ANDROGEN RECEPTOR MODULATORS” (priority 2021, published 2022)

Assays:
ER-β = biological target: T1, ER-β (Rattus norvegicus, UniProt Q62986); test: ER-β transactivation in HEK-293 cells; format: cell-based
T1 construct: expressed in transfected cells
Procedure: Rat GR, MR, PR, ER-α and ER-β were individually cloned into a pCR3.1 vector backbone. Sequencing was performed to verify the absence of any mutations. HEK-293 cells were plated at 90,000 cells per well of a 24 well plate in Dulbecco's Minimal Essential Media supplemented with 5% charcoal-stripped FBS. […] Luciferase assays were performed 48 h after transfection. Transcriptional activation values are represented as firefly luciferase normalized to renilla luciferase.

MCF7 palboR cells = test: Proliferation of palbociclib resistant MCF-7 cells; format: cell-based; details: Formula IX 100 nM, Palb 125 nM
From the text: (§1) Data were presented as mean values±s.e.m. […] Data represented the mean±s.e.m. of four replicate cell culture wells per condition. […] P values are indicated by gray asterisks, where ****P<0.0001 for all highlighted comparisons.
(§2) Tissue samples from an ER-positive, PR-negative, and HER2-negative (ER^+, PR^−, HER2^−) patient that progressed on (i.e., was resistant to) palbociclib were implanted into animal (NSG mice) models and grown as a patient-derived xenograft (PDX). […] This human tumor model also had amplification of the cyclin D1 (CCND1^Amp) gene which has been implicated as a driver of therapeutic resistance to CDKi. […] This is also observed in other models tested in vitro including a palbociclib resistant MCF-7 (MCF7 palbo^R) line (FIG. 44B).

[1] = system: breast cancer specimens obtained from patients; test: Breast cancer patient specimens, ex vivo sponge culture; format: cell-based, human
Procedure: Specimens from breast cancer patients were collected with patient consent under a protocol approved by the UTHSC Institutional Review Board (IRB). Specimens were collected immediately after surgery in RPMI medium containing penicillin:streptomycin and Fungizone and transported to the laboratory on ice. The tissues were finely minced and treated with collagenase for 2 hours.
HCI-13 tumors grown in female mice were allowed to reach 500-1000 mm^3 before the animals were sacrificed and the tumors were excised to be used for sponge culture. Patient specimens frozen in liquid nitrogen in freezing medium were used for sponge culture. […] Tumors were sliced into small pieces (˜1 mm^3) and incubated on pre-soaked gelatin sponges (5 fragments/sponge) in 12 well plates containing 1.5 mL medium (MEM+10% FBS+2 mM L-glutamine+10 μg/mL insulin+10 μg/mL hydrocortisone+penicillin:streptomycin). The cultures were performed in triplicates for HCI-13 and singly for patient specimens. Pooled samples (n=5/sponge) from each sponge constituted one sample. Tissues were harvested after 3 days of treatment, RNA extracted, and expression of various genes measured. Although the same procedure was adopted for specimens obtained from breast cancer patients, the specimens were cultured singly (n=5/sponge=one sample) and not in triplicates as performed for HCI-13.
Like other cancers, breast cancer is also heterogeneous in its genomic profile as well as in its response to treatments. […] Three days after treatment, RNA was isolated from the tissues and expression of ER- and AR-target genes was measured.

GAR15-13 PDX = test: GAR15-13 palbociclib-resistant PDX in NSG mice; details: mouse, in vivo
From the text: as §1, §2

[2] = Phase 3 trials in non-small cell lung cancer (muscle wasting); format: in vivo, human; details: 3 mg daily
From the text: These include: 1. Protocol G100401, a Phase 1 single ascending dose study in 96 healthy, young, male volunteers; 2. Protocol G100402, a Phase 1 multiple ascending dose study in 50 healthy, young, male volunteers, and 23 elderly male volunteers with truncal obesity; 3. Protocol G100503, a Phase 1 single dose pharmacokinetic study to assess the effect of a dosage regimen that simulates a sustained release formulation to an immediate release formulation in 18 healthy, young male volunteers and 18 postmenopausal women; 4. Protocol G100506, a Phase 1 single dose pharmacokinetic study to assess the relative bioavailability of a 3 mg hard shell capsule formulation to be used during continued clinical development and to assess the effect of food on the pharmacokinetics of the 3 mg softgel formulation in 27 healthy, young, male volunteers; 5. Protocol 006, a Phase 1 single dose and multiple dose pharmacokinetic study in 24 postmenopausal, Japanese women; 6. Protocol G200501, a Phase 2 study in 60 postmenopausal women and 60 elderly men to assess lean body mass and physical function; 7. Protocol 003, a Phase 1b study in 44 postmenopausal women; 8.

HCI-13 tumors = test: Phospho-proteomics of HCI-13 PDX tumors; design: species or system mice; details: mouse, in vivo
Procedure: Whole tissue lysates were directly prepared from the tissue sections using a 1:1 mixture of T-PER (Tissue Protein Extraction Reagent; Pierce, Rockford, Ill.) and 2× Tris-Glycine SDS Sample Buffer (Invitrogen, Carlsbad, Calif.) supplemented with 5% 2-mercaptoethanol. Samples were boiled for 8 minutes and stored at −80° C. until arrayed.
Samples and standard curves for internal quality assurance were printed onto nitrocellulose-coated slides (Grace Bio-labs, Bend, Oreg.) using an Aushon 2470 arrayer (Aushon BioSystems, Billerica, Mass.). Selected arrays were used to estimate the amount of protein in each sample using a Sypro Ruby Protein Blot Stain (Molecular Probes, Eugene, Oreg.) protocol following manufacturer's instructions (Pin et al. (2014) Curr Protoc Prtein Sci 75, Unit 27 27). Remaining arrays were tested with a single primary antibody using an automated system (Dako Cytomation, Carpinteria, Calif.) as previously described (Baldelli et al. (2015) Oncotarget 6, 32368-32379). Arrays were first incubated with Reblot Antibody stripping solution (Chemicon, Temecula, Calif.), followed by two washes in PBS, and I-block solution (Tropix, Bedford, Mass.) for 4 hours. Arrays were probed with a total of 174 antibodies targeting a wide range of protein kinases and their activation via phosphorylation. Antibodies specificity was tested using standard immunoblotting on a panel of cell lysates. […]
The commercially available Signal Amplification System (CSA; Dako Cytomation) and a streptavidin-conjugated IRDye 680 secondary antibody (LI-COR Biosciences, Lincoln, Nebr.) were used as signal detection methods. Images were acquired on the laser-based PowerScanner (TECAN, Mönnedorf, Switzerland), and data were analyzed using the MicroVigene software Version 5.1 (Vigene Tech, Carlisle, Mass.) as previously described (Baldelli et al. (2015) Oncotarget 6, 32368-32379). […]

T1 sequence (Q62986 whole entry): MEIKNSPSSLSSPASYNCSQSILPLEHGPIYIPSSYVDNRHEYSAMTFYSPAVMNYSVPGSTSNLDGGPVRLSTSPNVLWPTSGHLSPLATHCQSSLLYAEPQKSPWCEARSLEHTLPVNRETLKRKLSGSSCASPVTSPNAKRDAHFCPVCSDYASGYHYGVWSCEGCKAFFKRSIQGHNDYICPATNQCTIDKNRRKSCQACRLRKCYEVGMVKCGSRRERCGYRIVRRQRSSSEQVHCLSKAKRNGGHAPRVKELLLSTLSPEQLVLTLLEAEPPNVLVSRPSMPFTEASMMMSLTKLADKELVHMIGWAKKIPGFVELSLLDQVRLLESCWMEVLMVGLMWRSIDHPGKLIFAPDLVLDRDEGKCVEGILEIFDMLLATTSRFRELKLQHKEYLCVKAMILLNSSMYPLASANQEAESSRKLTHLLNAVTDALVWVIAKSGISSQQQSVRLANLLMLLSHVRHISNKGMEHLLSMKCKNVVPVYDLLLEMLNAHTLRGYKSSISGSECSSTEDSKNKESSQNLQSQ

Row | Structure (SMILES) | 17β-estradiol-induced ER-β activity, antagonist mode (ER-β; co-incubation) | ERβ-mediated transactivation, agonist mode (ER-β; highest tested concentration 1 μM) | anti-proliferative activity (MCF7 palboR cells) | specimens in which AR agonist activity was observed ([1]; 1 μM) | specimens in which ER function was inhibited ([1]; 1 μM Formula IX, 100 nM fulvestrant, 3 days) | tumor growth response (GAR15-13 PDX) | lean body mass [2] | expression of proliferation marker Ki67 (HCI-13 tumors) | phosphorylation of oncogenic proteins (pERK, PKC z, RSK3, Ezrin, BCL2, ELF4G, ER) (HCI-13 tumors) | phosphorylation of tumor suppressor proteins (p53, p27, ACC, AR) (HCI-13 tumors)
1 | C[C@](O)(COc1ccc(C#N)cc1)C(=O)Nc1ccc(C#N)c(Cl)c1 [Formula VIII, (S)—N-(3-chloro-4-cyanophenyl)-3-(4-cyanophenoxy)-2-hydroxy-2-methylpropanamide] | failed to alter | failed to activate | – | – | – | – | – | – | – | –
2 | C[C@](O)(COc1ccc(C#N)cc1)C(=O)Nc1ccc(C#N)c(C(F)(F)F)c1 [Formula IX, (S)—N-(4-Cyano-3-(trifluoromethyl)phenyl)-3-(4-cyanophenoxy)-2-hydroxy-2-methylpropanamide] | – | – | modest activity | 4 of 8 | 3 of 8 | responsive | increased | inhibited the expression | inhibited the phosphorylation | increased the phosphorylation
